Results published in patent US20060079677A1, “Novel tricyclic azepine derivatives, method for production thereof and pharmaceutical compositions comprising the same” (priority 2003, published 2006).

Experiments:
[1] = tested on: A549 non-small-cell human lung carcinoma; experiment: In vitro cytotoxicity, Microculture Tetrazolium Assay; format: cell-based; details: 96 h, A549, incubated 4 days, inhibition of proliferation by 50%
Protocol: (§1) Five cell lines were used: • 1 murine leukaemia, L1210, • 1 non-small-cell human lung carcinoma, A549, • 1 human epidermoid carcinoma, KB-3-1, and the corresponding resistant line, KB-A1, whose multi-drug resistance was induced using adriamycin (ADR), • 1 human colon carcinoma, HT29.
(§2) The cells are cultured in RPMI 1640 complete culture medium comprising 10% foetal calf serum, 2 mM glutamine, 50 units/ml of penicillin, 50 μg/ml of streptomycin and 10 mM Hepes, pH 7.4. The cells are distributed on microplates and are exposed to the cytotoxic compounds. The cells are then incubated for 2 days (L1210) or 4 days (A549, KB-A1, KB-3-1, HT29). The number of viable cells is then quantified by a colorimetric assay, the Microculture Tetrazolium Assay (Cancer Res. 1987, 47, 936-942).
(§3) The results are expressed as IC50, the concentration of cytotoxic agent that inhibits the proliferation of the treated cells by 50%.

L1210 murine leukaemia = experiment: as above; format: cell-based; details: Mus musculus, 48 h; L1210, incubated 2 days, inhibition of proliferation by 50%
Protocol: as §1, §2, §3

[2] = tested on: HT29 human colon carcinoma; experiment: as above; format: cell-based; details: HT-29, 96 h, HT29, incubated 4 days, inhibition of proliferation by 50%
Protocol: as §1, §2, §3

[3] = tested on: KB-3-1 human epidermoid carcinoma; experiment: as above; format: cell-based; details: 96 h, KB-3-1, incubated 4 days, inhibition of proliferation by 50%
Protocol: as §1, §2, §3

L1210 cells = experiment: Action on the cell cycle; format: cell-based, murine; details: 25 nM, after 21 hours (untreated cells: 20%)
Protocol: L1210 cells are incubated for 21 hours at 37° C. in the presence of various concentrations of test compounds. The cells are then fixed using 70% ethanol (v/v), washed twice in PBS and incubated for 30 minutes at 20° C. in PBS that contains 100 μg/ml of RNAse and 50 μg/ml of propidium iodide. The results are expressed as a percentage of the cells that have accumulated in the G2+M phases after 21 hours compared with the control.

[4] = tested on: KB-A1 resistant line (multi-drug resistance induced using adriamycin); experiment: In vitro cytotoxicity, Microculture Tetrazolium Assay; format: cell-based, human
Protocol: as §1, §2, §3

In the case of `COc1ccc(CCN2C=CC=C3C2=Nc2ccccc2OS3(=O)=O)cc1` [Example 42, 1-[2-(4-Methoxyphenyl)ethyl]-1H-pyrido[3,2-c][1,2,5]benzoxathiazepine 5,5-dioxide], the IC50 [1] is reported as 0.0113 µM, the IC50 (L1210 murine leukaemia) is reported as 0.0082 µM and the IC50 [2] is reported as 0.0098 µM. For the same molecule, the IC50 [3] was 0.0156 µM, the “percentage of the cells accumulated in the G2+M phases” value (L1210 cells) was 80-90% and the IC50 ([4]; Homo sapiens, 96 h, KB-A1, incubated 4 days, inhibition of proliferation by 50%) was 0.0133 µM. For the same molecule, the “recognition by P-glycoprotein (resistant line KB-A1 versus sensitive line KB-3-1)” value ([4]; KB-A1 as sensitive as KB-3-1) was “not recognised by P-glycoprotein”.
